This is an account of results in patent US20130213885A1, “FORWARD OSMOSIS SYSTEM AND PROCESS” (KING ABDULLAH UNIVERSITY OF SCIENCE AND TECHNOLOGY, priority 2012, published 2013).

SMILES strings stand for the structures.

This series can be described thus: Laboratory-scale forward osmosis performance test (water flux, salt flux). The conditions noted are these: AL-DS. The procedure:
Prior to use, CTA1 and CTA2 membranes were soaked in water for 30 minutes, and other membranes were soaked in isopropanol for 30 minutes, followed by a soaking in deionized (DI) water for 10 hours.
The specially designed cross-flow membrane cell (301) has a channel (302, 303) on each side of the membrane (304), which allows the feed solution (305) and draw solution (306) to flow through separately. Each channel has dimensions of 2.8 mm, 50 mm, and 100 mm for channel height, length, and width, respectively. Co-current flow was used with a flow rate in each channel that was controlled by a peristaltic pump (307, 308) and a flow meter (309, 310). The cross-flow rates for the feed and draw solution were both maintained at […]. A heat exchanger (311) was used to maintain the feed solution (305) and draw solution (306) at 23° C. A stirrer (318) on the feed side was also used. A weighing scale (312) connected to a computer (313) was used to monitor the weight of water permeating through the membrane from the feed to the draw side, from which the water flux was calculated. A conductivity meter (314) in the feed side was used to determine the salt concentration and thus the salt flux. A draw side conductivity meter (315) also exists to take measurements on the draw side. The laboratory scale unit (300) also comprises a feed-side thermistor (316) and a draw-side thermistor (317).

For the compound `[Cl-].[Na+]` [NaCl, sodium chloride], the “water flux relative to sodium lignin sulfonate as draw solute” value (CTA1 and CTA2 membranes, feed deionized water, different osmotic pressures) is reported as “doubles”. Further, the “salt flux relative to sodium lignin sulfonate as draw solute” value reads like this: (CTA1 membrane, feed deionized water) “about four times”; (CTA2 membrane, feed deionized water) “about the same range”. Further, the “water flux, relatively stable stage” value (RO1 membrane, draw solute at 84 bar, feed DI, after first 10 minutes) is recorded as “around 4 LMH”.
